Test system: Hep3B
Assay: Pharmacodynamic in vivo, Hep3B model tumor growth inhibition
Design: species or system NOD-SCID mice
Excerpt: The Hep3B cell line was purchased from ATCC; MEM cell culture medium, fetal bovine serum, and trypsin were purchased from Gibco; cell culture flasks were purchased from Greiner; and disposable Cell Counting Plate and taittinger Blue Solution Purchased from Bio-Rad. The disposable sterile syringe was purchased from Changzhou Jinlong Medical Plastic Instrument Co., Ltd, eye surgical scissors and eye surgical forceps were purchased from Shanghai Medical Instrument (Group) Co., Ltd. Surgical Instrument Factory, and 6-8 week old female NOD-SCID mice were purchased from Vitalivar.
a. One strain of Hep3B cells was taken out from the cell bank and MEM medium (MEM+10% FBS+1% PS) was used to recover the cells. The resuscitated cells were placed in a cell culture flask (the wall the flask was marked with the cell type, date, cultivator's name), and the cell culture flask was placed in a CO2 incubator (the temperature of the incubator was 37° C. and the CO2 concentration of the incubator was 5%);
b. When the cells covered about 90% of the bottom of the culture flask, passage was conducted. the cells were continued to cultivate in a CO2 incubator after passage. The above process was repeated until the number of the cell satisfied the requirements of pharmacodynamic in vivo;
c. The cultured cells were collected and counted using a BIO-Rad TC20 cell counter. According to the counting results, the cultured cells were resuspended with PBS and matrix gel (1:1) to obtain a cell suspension (density 5×10^7/ml), and the cell suspension was placed in an ice box for later use.
a. The cells were mixed well before seeding, and 0.5 ml of cell suspension was taken with a 1 ml syringe and bubbles in the cell suspension were removed. The syringe with the cell suspension was place on an ice pack for later use.
b. The NOD-SCID mice were set with the left hand, and the skin on the right back of the mice was disinfected with 75% alcohol. The inoculation was beginning after 30 seconds.
c. During inoculation, 1 mL syringe was on the right hand, and the cell suspension of Hep3B was inoculated subcutaneously into the right shoulder of the right back of the mouse at 0.1 mL/mouse. At inoculation interval, the syringe was placed on an ice pack and the mice were inoculated sequentially.
d. According to the tumor growth, the tumor was measured and the tumor size was calculated on the 12-15 days after inoculation.
Tumor volume calculation: tumor volume (mm^3)=length (mm)×width (mm)×width (mm)/2
e. When the tumors grew to an average volume of 100-150 mm^3, the mice were randomly divided into two groups according to tumor size and the weight of the mouse. […]
f. […] Tumors were measured and the mice were weighed twice a week after administration. […]

CSC[C@@H](C)Nc1cc(NC(=O)N2CCCc3cc(CN4CCN(C)CC4=O)c(C=O)nc32)ncc1C#N [Compound 4, (R)—N-(5-Cyano-4-((1-(methylthio)propan-2-yl)amino)pyridin-2-yl)-7-formyl-6-((4-methyl-2-oxopiperazin-1-yl)methyl)-3,4-dihydro-1,8-naphthyridine-1 (2H)-carboxamide]
antitumor effect: excellent antitumor effect
effect of 15 mg/kg BID compared with 60 mg/kg QD of the reference compound: equivalent
TGI % (15 mg/kg BID, gavage): 96.7%

Reference: patent US11136320B2, “Fused ring derivative used as FGFR4 inhibitor” (JACOBIO PHARMACEUTICALS CO., LTD., priority 2019, dated 2021)
